This is an account of results in PubChem BioAssay AID434955 (Southern Research Specialized Biocontainment Screening …, 2010).

This assay concerns M. tuberculosis H37Rv growth with meropenem, percent inhibition. Put plainly: beta-lactam sensitization of Mtb H37Rv, H37Rv (AID 434955).
For orientation: IC90 means the concentration at which the effect reaches the 90% level. In the case of `O=C(NN1C(=O)c2cc(Br)ccc2NC1c1ccccc1Cl)c1ccncc1` (stereo unspecified), the IC90 was 13.7 µM. For the molecule `O=C(CCCCCN1C(=O)c2cccc([N+](=O)[O-])c2C1=O)Nc1ccccc1F`, the IC90 was 44.1 µM. To `COC(=O)CNC(c1ccccc1Cl)c1cc(Br)ccc1NC(=O)CCN1CCOCC1` (stereo unspecified) belongs 34.3 µM; to `Nc1nc(Sc2ncccc2[N+](=O)[O-])n[nH]1`, 77.1 µM; to `Cc1cc2ccccc2n1CCNC(=O)COc1ccccc1`, 42.8 µM. As for `CCc1cc(C(N)=S)ccn1`, the figure is 12.8 µM; as for `CCOC(=O)N1CCN(C(=O)CSc2nnc(COc3ccccc3)o2)CC1`, 18.4 µM; as for `Cc1ccc(SCCNC(=O)c2ccc(C)c([N+](=O)[O-])c2)cc1`, 54 µM. To `O=C(CN1CCC(O)(c2ccc3c(c2)OCO3)CC1)OC1CCCCC1` belongs 35.3 µM; to `CCN(CC)S(=O)(=O)c1ccc(N/N=C(\C)c2ccc(OC)cc2O)nc1`, 10.4 µM; to `Cn1ccnc1C(=O)Cc1ccc([N+](=O)[O-])cc1`, 22.6 µM. Regarding `O=c1cc(C(F)(F)F)c2sc(N3CCCCC3)nc2[nH]1`, the IC90 was 49.3 µM. For `O=C1COc2ccc(C(=O)/C=C/c3ccccc3)cc2N1`, the IC90 is 12.2 µM. To `Cc1cccc(C)c1OCC(=O)NNC(=O)CNC(=O)c1ccc(OC(F)F)cc1` belongs 98.1 µM.

For the molecule `O=C(Cn1cnc2sc3c(c2c1=O)CCCC3)NCC(=O)Nc1ccccc1F`, the IC90 was 95.5 µM. As for `Cc1onc(-c2ccccc2)c1C(=O)Nc1ccc(-c2nnc3n2CCCCC3)cc1`, the figure is 38.6 µM; as for `C=C(C)C(=O)O[C@H]1C/C(C)=C\C(=O)/C=C(\C)[C@H](O)[C@@H]2OC(=O)C(=C)[C@@H]21`, 31.3 µM.

With `Cc1onc(NC(=O)c2ccc([N+](=O)[O-])o2)c1Br`, the IC90 was 16.4 µM. To `O=C1O/C(=C/c2ccccc2)N=C1c1ccccc1` belongs 28.3 µM; to `CCCCN(C)Cc1cc(=O)oc2cc3c(cc12)CCCC3`, 82.2 µM; to `O=C(OCn1nnc2ccccc2c1=O)c1ccc2c(=O)n3c(nc2c1)CCC3`, 26.1 µM. As for `COC(=O)c1sc(-c2ccc(C(C)(C)C)cc2)cc1NC(=O)CCC(=O)O`, the figure is 28.7 µM. To `O=C(CCNc1ccccc1)c1cccc([N+](=O)[O-])c1` belongs 45.8 µM. Consider `O=C(N/N=C/c1c(O)n(Cc2ccc(F)cc2)c(=S)[nH]c1=O)c1ccncc1`, for which the IC90 was 9.8 µM. To `COc1cccc(/C=C/c2[nH]c(=O)[nH]c(=O)c2[N+](=O)[O-])c1O` belongs 15.9 µM; to `Cc1ccc(S(=O)(=O)Nc2cccc3cccnc23)c([N+](=O)[O-])c1`, 4.7 µM; to `CCCc1cc(NC(=O)COC(=O)c2nccnc2N)n(-c2ccccc2)n1`, 50.8 µM. To `CN(C)CCCN(C(=O)/C=C/c1cccs1)c1nc2ccc(F)cc2s1` belongs 48.4 µM; to `CCN(CC)c1ccc(CN2CCCCCC2)cc1`, 49.4 µM. To `COc1cc(NC(=O)c2ccccc2)c(OC)cc1NC(=O)CN1CCOCC1` belongs 69.2 µM; to `O=C1/C(=C/c2ccncc2)CCc2ccccc21`, 29.1 µM; to `CCOC(=O)N1CCN(CC(=O)Nc2nnc(C(F)(F)F)s2)CC1`, 50.1 µM. In the case of `Cc1nn(-c2ccccc2)c(N2CCCC2)c1/C=C1\N=C(c2ccc(F)cc2)OC1=O`, the IC90 is 22.9 µM. As for `CCN(CC)CCCNC(=O)c1c(O)c2ccccc2n(Cc2ccccc2)c1=O`, the figure is 13.8 µM; as for `O=C(NCc1nc2ncc(Br)cc2[nH]1)c1ccccc1`, 54.9 µM; as for `COCCNC(=S)N/N=C1\CC(C)CC(C)(C)C1` (stereo unspecified), 27.5 µM. As for `COc1ccccc1-c1cc(C(=O)Nc2c(C)n(C)n(-c3ccccc3)c2=O)no1`, the figure is 19.5 µM. To `Cc1cc(C)cc(NC(=O)c2cc(Cl)sc2Cl)c1` belongs 7.73 µM; to `CCCCN=C1CC(C)(C)CC(=O)/C1=C(/O)CCC`, 28.7 µM; to `COc1ccc(OC)c(NC(=O)CS(=O)(=O)c2ccccc2)c1`, 14.3 µM. Regarding `CCn1cc(C(=O)O)c(=O)c2cc(F)c(N3CCN(C(=S)NC(=O)c4ccccc4C)CC3)cc21`, the IC90 is 16 µM. As for `COc1cc(OC)cc(-c2cc3ccc(OC)cc3cn2)c1`, the figure is 76.9 µM. To `Cc1cccc2c(C(=O)n3cccn3)cc(-c3ccccc3Cl)nc12` belongs 26.8 µM; to `Cc1cc(C)cc(OCC(=O)NNC(=O)c2ccccn2)c1`, 16 µM; to `CC1CCCN(S(=O)(=O)c2ccc(C(=O)Nc3nnc(-c4ccncc4)o3)cc2)C1` (stereo unspecified), 64.8 µM.

As to `NNC(=O)c1cccc(O)c1`, the 90% effect concentration (IC90) is 73.9 µM. `Cc1onc(-c2ccccc2Cl)c1C(=O)NCc1ccc2c(c1)cc(C)n2C`: the 90% effect concentration (IC90) was 29.4 µM.

Take `COc1cc(NC(=O)c2cccc(Cl)c2)c(OC)cc1NC(=O)CN1CCCCC1`: the concentration for an effect of 90% (IC90) was 75.5 µM.

In the case of `O=C(NCCC1=CCCCC1)c1ccc(Cl)c([N+](=O)[O-])c1`, the concentration for an effect of 90% (IC90) is 30.2 µM.

For `CCOc1ccc2nc(SC3CC(=O)N(c4cccc(OC)c4)C3=O)sc2c1` (stereo unspecified), the IC90 was 25.7 µM. As for `Cc1nn(-c2ccccc2)c(Cl)c1CN(C(=O)CCl)c1cccc2ccccc12`, the figure is 48.2 µM; as for `CCC(=O)N1CCN(c2ccc(NC(=S)NC(=O)c3ccc(OC)c([N+](=O)[O-])c3)cc2)CC1`, 67.8 µM; as for `Cn1c(/C=N/c2nc3ccccc3[nH]2)nc2ccccc21`, 4.17 µM.

For `O=C(O)CSc1ncnc2c1sc1nc(-c3ccccc3)c3c(c12)CCC3`, the concentration for an effect of 90% (IC90) was 14.2 µM. As for `O=C(N[C@@H](Cc1ccccc1)C(=O)CCl)OCc1ccccc1`, the figure is 46.9 µM. As for `CCCCN(CC)S(=O)(=O)c1ccc(C(=O)Nc2nnc(CSC)o2)cc1`, the figure is 31.7 µM.

`Cn1nnnc1Sc1ncnc2scc(-c3ccc(C(F)(F)F)cc3)c12`: the 90% effect concentration (IC90) was 15 µM. As for `Cc1cc(Br)ccc1NC(=O)CN1C(=O)C2CC=CCC2C1=O` (stereo unspecified), the figure is 38.7 µM. To `Cc1cccc(N2CCN(CC3CCCCC3)CC2)c1C` belongs 53.2 µM; to `CCCOc1ccc(C(=O)N/N=C/c2ccc(-c3ccc(S(=O)(=O)Nc4ncccn4)cc3)o2)cc1`, 26.1 µM. Regarding `CC(C)CC(=O)N1CCN(c2ccc([N+](=O)[O-])c(NCc3ccccc3)c2)CC1`, the IC90 was 48.6 µM. To `Cc1ccc(C)c(SCc2noc(C(=O)NCC3CCCO3)c2C(=O)O)c1` (stereo unspecified) belongs 48 µM; to `COc1cccc(/C=N/Nc2nc(N3CCCC3)nc(N3CCCC3)n2)c1O`, 36.1 µM.

For `C/C(=N/NC(=O)c1ccccn1)c1ccncc1`, the IC90 was 23.1 µM. In the case of `O=C(CN1C(=O)c2cccc([N+](=O)[O-])c2C1=O)N1CCN(c2ccc(F)cc2)CC1`, the IC90 was 74.5 µM.

Consider `CCCCNC(=O)c1onc(CSc2ccccc2CC)c1C(=O)O`, for which the IC90 is 23.7 µM. For the molecule `O=C1OC(/C=C/c2ccc(Cl)cc2Cl)=NC/1=C\c1cccs1`, the IC90 was 33.4 µM. Turning to `O=C1c2ccccc2N2C(=O)c3ccccc3C2N1O` (stereo unspecified), the IC90 was 56.4 µM. As for `S=C(NN=C1C2CC3CC(C2)CC1C3)Nc1ccccc1`, the figure is 51.4 µM; as for `CCCn1nnnc1NC(=O)COc1ccc(Cl)cc1C`, 42.9 µM; as for `CC1CCc2c(sc(NC(=O)CCCn3cnc([N+](=O)[O-])n3)c2C(N)=O)C1` (stereo unspecified), 90.4 µM. To `COc1ccc2c(c1)c(C(C)=O)c(C)n2-c1ccccc1` belongs 6.92 µM.

Take `CC(=O)Nc1ccc(Nc2ncc([N+](=O)[O-])c(Nc3ccc(NC(C)=O)cc3)n2)cc1`: the IC90 was 45.5 µM. As for `O=C(NN1C(=O)C2C(C1=O)C1C=CC2C12CC2)c1ccncc1` (stereo unspecified), the figure is 13.9 µM; as for `COC(=O)C1=C(C)NC(=O)/C1=C\c1cc(C)n(-c2c(C)cccc2C)c1C`, 99.8 µM; as for `O=C(CC12CC3CC(CC(C3)C1)C2)NCc1ccc(F)cc1`, 10.4 µM. Turning to `Cc1ccc(C)c(N2CCN(CC3CCCCC3)CC2)c1`, the IC90 is 52.4 µM. On to `CC(C)(C)c1ccc(C(=O)Oc2ccc3c(c2)OCC3=O)cc1`, for which the IC90 is 29.4 µM. To `CCNc1nc(CN2CCCCC2)nc2scc(-c3ccccc3)c12` belongs 57.3 µM; to `O=C(Nc1ccc2nc3n(c(=O)c2c1)CCCC3)c1cc([N+](=O)[O-])ccc1F`, 91 µM; to `C=CCc1cc(Cl)ccc1OCCCNC(C)CC` (stereo unspecified), 51.3 µM.
